Assay results as given in patent US20260294922A1, “Inhibitors of JUN N-Terminal Kinases (JNK1, JNK2, and/or JNK3) and Mitogen-Activated Protein Kinases (MAPK8, MAPK9, and/or MAPK10) and Methods of Using Same” (Baylor College of Medicine, priority 2023, published 2026).
≈ marks a conversion by molar mass, not a printed value. Entries after “also recorded” stand apart in the source; their conditions may differ.

Experiments:
JNK3 [1] = molecular target: T1, JNK3 (Homo sapiens, UniProt P53779); experiment: ThermoFisher SelectScreen, JNK3; format: binding
JNK3 [2] = molecular target: T1, JNK3; experiment: Promega NanoBRET intracellular target engagement (tracer K10 displacement), JNK3; format: cell-based
MEK4 = molecular target: T2, MEK4 (Homo sapiens, UniProt P45985); experiment: ThermoFisher SelectScreen, MEK4; format: binding
T2 construct: purchased ThermoFisher (SelectScreen)
T2 sequence (P45985 1-399): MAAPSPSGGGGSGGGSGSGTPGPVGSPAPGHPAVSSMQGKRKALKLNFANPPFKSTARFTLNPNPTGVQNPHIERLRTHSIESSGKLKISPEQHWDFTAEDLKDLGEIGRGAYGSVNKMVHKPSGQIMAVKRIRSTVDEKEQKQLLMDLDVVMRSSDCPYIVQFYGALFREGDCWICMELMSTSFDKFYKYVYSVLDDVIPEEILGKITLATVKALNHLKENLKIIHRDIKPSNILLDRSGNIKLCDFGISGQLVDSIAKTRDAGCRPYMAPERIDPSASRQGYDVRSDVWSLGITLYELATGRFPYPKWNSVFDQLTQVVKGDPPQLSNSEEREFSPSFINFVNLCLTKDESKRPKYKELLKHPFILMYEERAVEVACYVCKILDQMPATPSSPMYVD

CSNK1E = molecular target: T3, CSNK1E (Homo sapiens, UniProt P49674); experiment: ThermoFisher SelectScreen, CSNK1E; format: binding
T3 construct: purchased ThermoFisher (SelectScreen)

JNK1 [3] = molecular target: T4, JNK1 (Homo sapiens, UniProt P45983); experiment: JNK1 kinase (intrinsic ATPase, Kinase-Glo) assay; format: biochemical
Procedure: JNK1, JNK2, and JNK3 hydrolyze ATP to ADP without any peptide substrates. This allows a very robust and fast endpoint assay where the remaining concentration of ATP is measured (BMG ClarioStar Plus plate reader) using the Kinase-Glo Assay kit from Promega (V6711). A luminescence signal is measured, which is produced by the catalytic conversion of beetle luciferin to oxyluciferin by luciferase. Potential inhibition of luciferase (i.e., false negatives) is easily detected, because assays without kinase are always included, and less ATP than is present in this control reaction could also indicate an inhibition of luciferase, which can be excluded by a counter screen with only luciferase.
To mitigate violation of the linear initial velocity principle, which is a problem in end-point assays when doing dose-responses, the enzyme concentration was carefully optimized, in a total assay volume of 25 μL. […] The kinase reaction was done for 30 or 60 min at 30° C., and detection of leftover ATP was measured according to Promega's protocol. […] Fractional activities were obtained from normalized data. Non-linear regression (GraphPad Prism7) and a modified Morrison equation for tight binding was used to determine apparent Ki values for inhibitors, assuming no particular mode of inhibition. An orthogonal binding assay (LanthaScreen) was outsourced to ThermoFisher Scientific's SelectScreen Services to determine IC50 values.

[4] = In vitro metabolism in human liver microsomes; details: human, microsomes
Procedure: (§1) The target product profile seeks to deliver JNK inhibitor as a once daily oral administration. To prioritize compounds for further development, in vitro metabolism of several CDD JNK inhibitors were determined to approximate the plasma half-life and the rate of metabolism of the compounds in vivo.

JNK3 [5] = molecular target: T1, JNK3; experiment: JNK3 kinase (intrinsic ATPase, Kinase-Glo) assay; format: biochemical; details: Table 3a; read-out: Kd JNK3
JNK2 [6] = molecular target: T5, JNK2 (Homo sapiens, UniProt P45984); experiment: JNK2 kinase (intrinsic ATPase, Kinase-Glo) assay; format: biochemical; details: Table 3a; read-out: Kd JNK2
JNK1 [7] = molecular target: T4, JNK1; experiment: Promega NanoBRET intracellular target engagement (tracer K10 displacement), JNK1; format: cell-based
hVPS34 = molecular target: T6, hVPS34 (Homo sapiens, UniProt Q8NEB9); experiment: ThermoFisher SelectScreen, hVPS34; format: binding; details: Table 4
T6 construct: purchased ThermoFisher (SelectScreen, outsourced service)
Procedure: To mitigate violation of the linear initial velocity principle, which is a problem in end-point assays when doing dose-responses, the enzyme concentration was carefully optimized, in a total assay volume of 25 μL. The assay was performed using 10 μM ATP, 0.02% Tween-20, kinase buffer from Cell Signaling (#9802) in white 384-well plates. The kinase reaction was done for 30 or 60 min at 30° C., and detection of leftover ATP was measured according to Promega's protocol. […] Fractional activities were obtained from normalized data. Non-linear regression (GraphPad Prism7) and a modified Morrison equation for tight binding was used to determine apparent Ki values for inhibitors, assuming no particular mode of inhibition. An orthogonal binding assay (LanthaScreen) was outsourced to ThermoFisher Scientific's SelectScreen Services to determine IC50 values.
One of the earliest compounds to be synthesized with favorable enzymatic activity towards JNK1 and JNK3 was CDD-2346. A KINOMEscan was performed for CDD-2346 to establish whether the selectivity of this chemical scaffold was suitable or required optimization. […] To confirm that the activity against each kinase was a true result and not a false positive, CDD-2346 was evaluated in kinase assays using ThermoFisher SelectScreen platform. The results from these assays are provided herein (Table 4). The important innovative steps described are the optimization of selectivity a) for JNK isoforms; b) for kinases considered “in-pathway”; and c) to avoid kinases considered “out-of-pathway”.

[8] = In vitro metabolism in mouse liver microsomes; details: mouse, microsomes
Procedure: as §1

JNK2 [9] = molecular target: T5, JNK2; experiment: Promega NanoBRET intracellular target engagement (tracer K10 displacement), JNK2; format: cell-based
[10] = tested on: 12Z endometriotic epithelial cells; experiment: IL-1β-stimulated pro-inflammatory gene expression (qPCR) in 12Z cells; format: cell-based, human; details: relative to bentamapimod
Description: These studies indicate that NanoBRET assays are an innovative technical platform to measure target engagement of CDD JNK inhibitors with the target JNK1, JNK2 or JNK3. As further evidence that JNK inhibitors address disease-relevant endpoints, biological responses of JNK inhibitors are provided herein, as measured in target tissue cellular models. 12Z immortalized endometriotic epithelial cells and patient-derived endometriotic stromal cells have been cultured with reference compound bentamapimod, CDD-2628, and CDD-2728. To exemplify the effects of CDD-2628 and CDD-2728 in the endometrial cell cultures, gene expression was measured using qPCR (expressed as fold-change relative to GAPDH, a housekeeping gene that is not affected by culture treatment effects) that reflect synthesis of inflammatory lipids (PTGS2), transformation of cells to a more migration and invasive potential (MMP-3) and chemoattractant cytokines to recruit pro-inflammatory immune cells (IL-6, IL-8).
In the culture systems employed in FIGS. 12A-12J, FIGS. 13A-13B, FIGS. 14A-14H, FIGS. 15A-15H, and FIGS. 16A-16F, the treatment of cells with IL-1β is used to mimic the peritoneal environment where IL-1β is most frequently measured at higher concentrations in patients with endometriosis (0.1 ng/mL-1 ng/mL) than in unaffected women (<0.01 ng/mL). The use of IL-1β to mimic the pro-inflammatory environment is a common method in cellular assays for endometriosis research. Although the concentrations of IL-1β in these cell cultures are higher than measured in peritoneal fluid, there are multiple other pro-inflammatory cytokines in peritoneal fluid that contribute to the pro-inflammatory environment.
Specifically, 12Z cells were plated at a density of 1×10^5 cells/well in a 12-well tissue culture plate, serum-starved overnight (17-18 h), pre-treated with vehicle (DMSO) or JNK inhibitor for 30 minutes, then stimulated with 10 ng/ml IL-1β in the presence or absence of the JNK inhibitors for 6 hours. After the 6-hour treatment, mRNA was extracted from the cells using the Qiagen RNEasy mini isolation kit and […] of mRNA was reverse transcribed into cDNA using the qScript cDNA Supermix (Quanta Biosciences). cDNA was amplified using SYBR Green Master Mix (Applied Biosystems) with quantitative Real Time PCR (BioRad CFX) using pre-designed and validated primers specific for genes encoding IL6, IL8, PTGS2/COX2, and MMP3 (BioRad). Relative quantification of these specific genes was calculated by the ΔΔCt method, normalizing their abundance relative to the internal housekeeping gene, GAPDH, followed by quantification relative to the vehicle-treated cells. Statistical analyses and visualizations were performed using a One Way ANOVA with a Tukey's multiple comparison post-hoc test on GraphPad Prism version 9.

[11] = tested on: immortalized human endometriotic epithelial cells (iHEEC); experiment: Phosphorylation of JNK and Jun in iHEEC; format: cell-based
Description: FIG. 26A depicts the effects of CDD-2728 and CDD-3013 on phosphorylation of the JNK enzyme itself (i.e., representing MEK4 inhibition) and phosphorylation of pSer63 and pSer73 on the transcription factor Jun in immortalized human endometriotic epithelial cells (iHEEC). The HEEC cells are a well characterized cell line that are relevant for the evaluation of inflammatory endpoints and measures of epithelial-to-mesenchymal transitions (EMT). […] This is consistent with the potency relationships of CDD-2728 relative to bentamapimod observed in cytokine gene expression described above in iHEEC cells and primary human stromal endometriotic cells. […] SP600125 has been frequently described as a poorly-selective JNK-I but in this context provides additional confirmation of inhibition of the JNK target kinase for CDD-2728. […] This adds further support to the critical role of JNK-1 to the therapeutic effect of the JNK inhibitors of the disclosure.

T1 sequence (P53779 whole entry): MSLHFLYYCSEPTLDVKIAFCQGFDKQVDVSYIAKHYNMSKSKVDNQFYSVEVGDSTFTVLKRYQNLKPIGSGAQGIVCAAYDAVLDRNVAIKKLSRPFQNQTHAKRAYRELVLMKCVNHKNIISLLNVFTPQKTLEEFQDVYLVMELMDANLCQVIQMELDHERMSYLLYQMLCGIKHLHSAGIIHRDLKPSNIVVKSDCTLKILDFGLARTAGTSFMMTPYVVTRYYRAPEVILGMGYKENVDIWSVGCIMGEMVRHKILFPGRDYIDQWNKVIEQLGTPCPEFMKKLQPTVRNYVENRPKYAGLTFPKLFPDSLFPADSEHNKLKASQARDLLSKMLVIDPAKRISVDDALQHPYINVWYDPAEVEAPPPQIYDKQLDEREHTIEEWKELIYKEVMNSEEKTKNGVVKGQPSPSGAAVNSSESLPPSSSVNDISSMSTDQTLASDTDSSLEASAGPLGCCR
T4 sequence (P45983 whole entry): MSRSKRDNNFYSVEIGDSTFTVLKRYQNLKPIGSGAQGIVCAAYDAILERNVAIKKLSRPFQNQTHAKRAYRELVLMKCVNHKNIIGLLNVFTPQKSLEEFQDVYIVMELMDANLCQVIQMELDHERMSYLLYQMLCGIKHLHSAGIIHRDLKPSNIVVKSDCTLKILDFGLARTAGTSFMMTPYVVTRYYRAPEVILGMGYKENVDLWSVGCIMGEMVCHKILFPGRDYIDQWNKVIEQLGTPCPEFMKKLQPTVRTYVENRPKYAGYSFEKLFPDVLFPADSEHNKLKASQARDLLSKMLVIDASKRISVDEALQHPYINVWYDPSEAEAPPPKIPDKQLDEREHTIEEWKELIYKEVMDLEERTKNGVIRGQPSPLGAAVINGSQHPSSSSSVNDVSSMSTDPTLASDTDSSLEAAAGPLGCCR
T5 sequence (P45984 whole entry): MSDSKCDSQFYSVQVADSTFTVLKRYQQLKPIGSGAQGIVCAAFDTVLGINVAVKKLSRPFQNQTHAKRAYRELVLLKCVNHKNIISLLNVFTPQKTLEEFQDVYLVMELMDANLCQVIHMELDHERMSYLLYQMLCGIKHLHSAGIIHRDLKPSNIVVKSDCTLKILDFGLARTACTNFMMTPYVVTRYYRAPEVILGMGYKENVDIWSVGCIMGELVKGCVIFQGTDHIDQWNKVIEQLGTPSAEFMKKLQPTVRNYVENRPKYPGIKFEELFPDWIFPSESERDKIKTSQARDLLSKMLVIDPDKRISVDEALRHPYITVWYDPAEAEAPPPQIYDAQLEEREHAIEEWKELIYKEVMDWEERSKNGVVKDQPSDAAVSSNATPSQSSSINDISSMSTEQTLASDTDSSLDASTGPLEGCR
T6 sequence (Q8NEB9 whole entry): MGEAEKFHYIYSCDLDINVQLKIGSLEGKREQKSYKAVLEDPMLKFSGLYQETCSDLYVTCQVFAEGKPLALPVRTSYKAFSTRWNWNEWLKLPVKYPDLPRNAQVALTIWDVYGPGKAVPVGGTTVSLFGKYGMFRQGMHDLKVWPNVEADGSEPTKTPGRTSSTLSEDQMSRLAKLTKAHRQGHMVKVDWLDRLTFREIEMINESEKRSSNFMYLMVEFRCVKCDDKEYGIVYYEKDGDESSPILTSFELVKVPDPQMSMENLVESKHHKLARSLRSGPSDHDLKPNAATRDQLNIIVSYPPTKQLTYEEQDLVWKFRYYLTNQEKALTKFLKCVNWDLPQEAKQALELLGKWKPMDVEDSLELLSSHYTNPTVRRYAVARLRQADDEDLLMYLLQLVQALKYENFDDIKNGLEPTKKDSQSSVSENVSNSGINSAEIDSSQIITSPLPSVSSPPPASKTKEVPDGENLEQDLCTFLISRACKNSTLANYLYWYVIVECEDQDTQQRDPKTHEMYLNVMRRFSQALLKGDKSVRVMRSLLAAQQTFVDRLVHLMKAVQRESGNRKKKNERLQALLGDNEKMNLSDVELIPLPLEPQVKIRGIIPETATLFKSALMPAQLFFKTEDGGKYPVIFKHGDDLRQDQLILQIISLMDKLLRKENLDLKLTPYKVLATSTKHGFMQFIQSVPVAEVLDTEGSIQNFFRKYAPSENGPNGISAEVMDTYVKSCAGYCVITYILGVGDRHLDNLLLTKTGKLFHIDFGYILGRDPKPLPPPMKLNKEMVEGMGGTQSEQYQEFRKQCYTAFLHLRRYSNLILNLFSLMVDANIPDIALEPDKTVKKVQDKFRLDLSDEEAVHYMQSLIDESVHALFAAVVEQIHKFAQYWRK
T3 sequence (P49674 whole entry): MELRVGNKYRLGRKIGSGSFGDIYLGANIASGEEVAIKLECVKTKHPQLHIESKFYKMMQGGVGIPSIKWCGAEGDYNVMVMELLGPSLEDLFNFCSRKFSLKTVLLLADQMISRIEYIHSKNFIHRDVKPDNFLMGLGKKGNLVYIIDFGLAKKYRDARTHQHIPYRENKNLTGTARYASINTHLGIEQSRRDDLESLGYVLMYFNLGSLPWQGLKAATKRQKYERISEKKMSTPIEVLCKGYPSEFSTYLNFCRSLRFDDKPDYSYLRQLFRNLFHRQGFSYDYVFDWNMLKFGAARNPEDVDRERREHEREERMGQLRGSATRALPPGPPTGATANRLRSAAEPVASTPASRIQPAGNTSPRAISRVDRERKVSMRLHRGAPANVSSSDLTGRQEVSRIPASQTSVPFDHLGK

Structure (SMILES)	Kd (JNK3 [1])	IC50 (JNK3 [2])	solubility (Solubility)	Kd (MEK4)	Kd (CSNK1E)	Kd (JNK1 [3])	half-life [4]	Kd (JNK3 [5])	Kd (JNK2 [6])	IC50 (JNK1 [7])	Kd (hVPS34)	half-life [8]	IC50 (JNK2 [9])	IL-6 expression [10]	IL-8 expression [10]	MMP-3 expression [10]	PTGS2 expression [10]	phosphorylation of JNK1 (P46) and JNK2 (P54) [11]	phosphorylation of Jun at pSer63 and pSer73 [11]
CNCc1ccc(NC(=O)c2ccn3ncc(-c4cncc5ccccc45)c3c2)cc1 [CDD-2347, 3-(isoquinolin-4-yl)-N-(4-((methylamino)methyl)phenyl)pyrazolo[1,5-a]pyridine-5-carboxamide]	0.00138 µM	2 µM	134 µM (≈ 54.7 µg/mL)	0.483 µM	3.18 µM	0.00039 ± 0.00011 µM	0.505 h	0.00138 ± 0.00021 µM	0.0017 ± 0.00012 µM	2.2 µM	0.776 µM	0.552 h	0.99 µM						
COc1ccc(NC(=O)c2cc3c(-c4cnc5[nH]ccc5c4)cccc3s2)cc1C(=O)N(C)C [CDD-2628, N-(3-(dimethylcarbamoyl)-4-methoxyphenyl)-4-(1H-pyrrolo[2,3-b]pyridin-5-yl)benzo[b]thiophene-2-carboxamide]		0.566 µM	7.4 µM (≈ 3.48 µg/mL)			0.00183 ± 0.00026 µM	1.64 h	0.00052 ± 5e-05 µM	0.0016 ± 0.00017 µM	0.5 µM		0.677 h	0.52 µM	concentration-dependent decreases	improved potency; also recorded: more effective than bentamapimod	improved potency; also recorded: more effective than bentamapimod	concentration-dependent decreases		
O=C(Nc1ccc(O)c(C(=O)N2CCCCC2)c1)c1cc2c(-c3cnc4[nH]ccc4c3)cccc2s1 [CDD-2634, N-(4-hydroxy-3-(piperidine-1-carbonyl)phenyl)-4-(1H-pyrrolo[2,3-b]pyridin-5-yl)benzo[b]thiophene-2-carboxamide]		0.119 µM	1.1 µM (≈ 0.546 µg/mL)			0.00029 ± 0.00013 µM	1.36 h	0.00262 ± 0.00028 µM	0.00181 ± 0.00019 µM	0.172 µM		0.983 h	0.161 µM		more potent inhibitors of IL-8 expression than bentamapimod				
CN(C)C(=O)c1cc(NC(=O)c2nc3c(-c4cnc5[nH]ccc5c4)cccc3s2)ccc1O [CDD-2856, N-(3-(dimethylcarbamoyl)-4-hydroxyphenyl)-4-(1H-pyrrolo[2,3-b]pyridin-5-yl)benzo[d]thiazole-2-carboxamide]		2.2 µM	3.8 µM (≈ 1.74 µg/mL)			0.00027 ± 8e-05 µM	3.75 h	0.00103 ± 7e-05 µM	0.00314 ± 0.00033 µM	1 µM		0.925 h	1.1 µM					inhibits the upstream phosphorylation of JNK1 and JNK2	inhibits phosphorylation more effectively than Tanzisertib
O=C(Nc1ccc(O)c(C(=O)N2CCC2)c1)c1cc2c(-c3cnc4[nH]ccc4c3)cccc2s1 [CDD-3014, N-(3-(azetidine-1-carbonyl)-4-hydroxyphenyl)-4-(1H-pyrrolo[2,3-b]pyridin-5-yl)benzo[b]thiophene-2-carboxamide]		0.96 µM	0.4 µM (≈ 0.187 µg/mL)			0.00058 ± 8e-05 µM	2.93 h	0.00292 ± 0.00021 µM	0.00574 ± 0.0005 µM	0.789 µM		1.02 h	0.738 µM						
O=C(Nc1cncnc1)c1cc2c(-c3cnc4[nH]ccc4c3)cccc2s1 [CDD-3015, N-(pyrimidin-5-yl)-4-(1H-pyrrolo[2,3-b]pyridin-5-yl)benzo[b]thiophene-2-carboxamide]		8.2 µM	0.3 µM (≈ 0.111 µg/mL)			0.00234 ± 0.0003 µM	3.57 h	0.00318 ± 0.00014 µM	0.00684 ± 0.00081 µM	3.5 µM		0.773 h	3.2 µM						
Oc1c2ccccc2c2c3c(cccc13)N=N2 [SP600125, reference compound]																		MEK4-dependent phosphorylation of JNK1 and JNK2	inhibits pSer63 and pSer73 Jun
